Patent US6441026B1, “Antitumor compositions containing taxane derivatives” (priority 1995, dated 2002)
Like-named read-outs stand apart in the source and are kept apart here.

Experiments:
C38 colon adenocarcinoma = conditions: optimum dose, i.v., days 21,25,29,33: Taxotere 22 mg/kg/inj; 5-fluorouracil 43.4; combination Taxotere 17.6 + 5-fluorouracil 27.0 (simultaneous)
Source text: (§1) log10 cells killed=T−C(days)/3.32×Td
(§2) The animals are autopsied when sacrificed.

Colon 51 = conditions: for Responses TFS (tumor free survivors): on day 122
Protocol: as §1, §2
(§3) The tumor model used to evaluate each drug combination was selected, in general, on the basis of its responsiveness to each of the agents when used as monotherapy. Using i.v. intermittent schedules, full dose response trials were conducted for each single agent and each combination.
(§4) In addition to the parameters described above, the combination toxicity index (CTI) was determined. […] Rep. 66: 1187-1200 (1982). […] It indicates the extent in host toxicity overlap.

[1] = system: MA13/c mammary adenocarcinoma; conditions: optimum dose, i.v.: Taxotere 15 mg/kg/inj days 14,17,20; cyclophosphamide 118 mg/kg day 14; combination Taxotere 7.5 + cyclophosphamide 90.0 mg/kg/inj
Protocol: This efficacy may be quantified, for example, by the log10 cells killed, which is determined according to the following formula:
A product is considered to be active if log10 cells killed is greater than or equal to 0.7. A product is considered to be very active if log10 cells killed is greater than 2.8.
The combination, used at its own maximum tolerated dose, in which each of the constituents will be present at a dose generally not exceeding its maximum tolerated dose, will manifest therapeutic synergy when the log10 cells killed is greater than the value of the log10 cells killed of the best constituent when it is administered alone.
The efficacy of the combinations on solid tumors may be determined experimentally in the following manner:
The animals subjected to the experiment, generally mice, are subcutaneously grafted bilaterally with 30 to 60 mg of a tumor fragment on day 0. The animals bearing tumors are mixed before being subjected to the various treatments and controls. […]
The tumors are measured 2 or 3 times a week until the tumor reaches approximately 2 g, or until the animal dies if this occurs before the tumor reaches 2 g. […]
The antitumor activity is determined in accordance with the different parameters recorded.

MA13/C = conditions: mouse, in vivo
Protocol: as §1, §2, §3, §4

MA 17/C = conditions: mouse, in vivo, iv, 40.3 mg/kg
Protocol: as §1, §2, §3, §4

[2] = CPT-11 trial: CPT-11 PO 42.5 mg/kg/inj 5,9 2x/d, acetocyclopropyl taxotere IV 21.1 days 5,9, combination 21.0 + 11.9 simult.
[3] = cisplatin trial, days 5,12: acetocyclopropyl taxotere 30.0 mg/kg/inj IV, cisplatinum 3.1, combination 13.6 + 2.0 simult.

Structure (SMILES): O=c1[nH]cc(F)c(=O)[nH]1 [5-fluorouracil]
- log10 cells killed (C38 colon adenocarcinoma): 1.1

Structure (SMILES): CCc1c2c(nc3ccc(OC(=O)N4CCC(N5CCCCC5)CC4)cc13)-c1cc3c(c(=O)n1C2)COC(=O)[C@]3(O)CC [CPT-11]
- % bwl loss at nadir (Colon 51; [2]): 3.7%
- T/C % (Colon 51; [2]): 0%
- day of nadir (body weight loss) (Colon 51; [2]): (7) day
- log cell kill (Colon 51; CPT-11 trial: CPT-11 PO 42.5 mg/kg/inj 5,9 2x/d, acetocyclopropyl taxotere IV 21.1 days 5,9, combination 21.0 + 11.9 simult., Td = 2 days): 1.1

Structure (SMILES): N.N.[Cl][Pt][Cl] [Cisplatinum, cisplatin]
- T/C % (Colon 51; [3]): 0%
- log cell kill (Colon 51; cisplatin trial, days 5,12: acetocyclopropyl taxotere 30.0 mg/kg/inj IV, cisplatinum 3.1, combination 13.6 + 2.0 simult., Td = 2.5 days): 2.7
- Responses TFS (tumor free survivors) (Colon 51; [3]): 0/7
- Responses TFS (tumor free survivors) (Colon 51; cisplatin trial, days 5,12: acetocyclopropyl taxotere 30.0 mg/kg/inj IV, cisplatinum 3.1, combination 13.6 + 2.0 simult., listed as cisplatin): no tumor free survivors

Structure (SMILES): O=P1(N(CCCl)CCCl)NCCCO1 (centres unmarked) [Cylcophosphamide, cyclophosphamide]
- log10 cells killed [1]: 1.3

Structure (SMILES): COc1cccc2c1C(=O)c1c(O)c3c(c(O)c1C2=O)C[C@@](O)(C(=O)CO)C[C@@H]3O[C@H]1C[C@H](N)[C@H](O)[C@H](C)O1 [Doxorubicin, doxorubicin]
- Responses CR (Complete Response) (MA13/C): 3/5
- log cell kill (MA13/C): 3.0

Structure (SMILES): CCC1=C[C@@H]2CN(C1)Cc1c([nH]c3ccccc13)[C@@](C(=O)OC)(c1cc3c(cc1OC)N(C)[C@H]1[C@@](O)(C(=O)OC)[C@H](OC(C)=O)[C@]4(CC)C=CCN5CC[C@]31[C@@H]54)C2 [Navelbine]
- Responses TFS (tumor free survivors) (MA 17/C): 0/6
- T/C % (MA 17/C): 0%
- log cell kill (MA 17/C): 5.5

Structure (SMILES): CC(=O)O[C@@]12CO[C@@H]1C[C@H](O)[C@@]1(C)C(=O)[C@H](O)C3=C(C)[C@@H](OC(=O)[C@H](O)[C@@H](NC(=O)OC(C)(C)C)c4ccccc4)C[C@@](O)([C@@H](OC(=O)c4ccccc4)[C@H]21)C3(C)C [Taxotere]
- log10 cells killed [1]: 2.8
- log10 cells killed (C38 colon adenocarcinoma): 1.4
